Laboratory results: PubChem BioAssay (NCI)
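In this assay, cells in 96-well plates receive the compound at five concentrations for 48 hours. Endpoints are linearly interpolated between the surrounding concentrations. GI50 = concentration required for 50% inhibition of growth. At the TGI there is no net growth.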

Key:
Assay in all cases: DTP human tumour cell line panel, 48 h
A549 NSCLC = system: A549 NSCLC
EKVX NSCLC = system: EKVX NSCLC
HCC-2998 colon = system: HCC-2998 colon
HOP-62 NSCLC = system: HOP-62 NSCLC
MDA-MB-435 = system: MDA-MB-435
NCI-H23 lung = system: NCI-H23 lung
OVCAR-5 ovarian = system: OVCAR-5 ovarian
OVCAR-8 ovarian = system: OVCAR-8 ovarian
SN12C renal = system: SN12C renal
UACC-62 melanoma = system: UACC-62 melanoma

SMILES	GI50 (A549 NSCLC) [µM]	TGI (A549 NSCLC) [µM]	GI50 (EKVX NSCLC) [µM]	TGI (EKVX NSCLC) [µM]	GI50 (HCC-2998 colon) [µM]	TGI (HCC-2998 colon) [µM]	GI50 (HOP-62 NSCLC) [µM]	TGI (HOP-62 NSCLC) [µM]	GI50 (MDA-MB-435) [µM]	TGI (MDA-MB-435) [µM]	GI50 (NCI-H23 lung) [µM]	TGI (NCI-H23 lung) [µM]	GI50 (OVCAR-5 ovarian) [µM]	TGI (OVCAR-5 ovarian) [µM]	GI50 (OVCAR-8 ovarian) [µM]	TGI (OVCAR-8 ovarian) [µM]	GI50 (SN12C renal) [µM]	TGI (SN12C renal) [µM]	GI50 (UACC-62 melanoma) [µM]	TGI (UACC-62 melanoma) [µM]
C#CC[C@@H]1C[C@]2(C)[C@H]3CC[C@@H]4[C@H]5[C@H](C(=C)C)CC[C@]5(C(=O)O)CC[C@@]4(C)[C@]3(C)CC[C@H]2C(C)(C)[C@H]1O	1.31	2.8	2.63	10.6	4.44	38.5	2.08	5.28	3.03	10.8	2.38	6.95	3.07	11.6	2.17	4.81	2.98	11.6	2.64	9.84
CCOC(=O)c1ccc2c(c1)[n+](=O)c(C(=O)c1ccc3ccccc3c1)c(C(F)(F)F)n2[O-]	1.89	3.62	1.56	3.14	1.65	3.03	1.66	3.08	1.53	2.95	0.496	1.79	1.3	2.57	1.28	2.7	1.63	3.58	1.52	2.93
CC1(C)CC(=O)C(C(c2cccc(O)c2O)C2C(=O)CC(C)(C)CC2=O)C(=O)C1	–	> 100	–	> 100	–	–	–	> 100	–	> 100	–	> 100	–	> 100	–	> 100	–	> 100	–	> 100
O=C(CCc1nnc2s/c(=C\c3ccc4c(c3)OCO4)c(=O)n12)Nc1cc(Cl)ccc1Cl	–	> 100	–	> 100	–	> 100	–	> 100	–	–	–	> 100	–	> 100	–	> 100	–	> 100	–	> 100
COc1ccccc1CNCCCN1C(=O)c2ccc3c4c(ccc(c24)C1=O)C(=O)N(CCCNCCCCNCCCCN)C3=O	2.3	7	–	–	1.8	6.39	1.78	7.64	1.62	3.37	2.43	7.59	2.23	7	0.59	6.59	1.99	5.9	1.53	3.66
O=C(Nc1ccc(Cl)c(Cl)c1)C(=O)Nn1c(=S)[nH]c2ccccc2c1=O	–	> 100	–	> 100	–	> 100	–	> 100	–	–	–	> 100	–	> 100	–	> 100	–	> 100	–	> 100
O=C1OC(c2ccccc2)C2CC3CC4(CCC3CN12)OCCO4 (stereo unspecified)	–	> 100	–	> 100	–	–	–	> 100	–	–	–	> 100	–	> 100	–	> 100	–	> 100	–	> 100
O=C(c1ccccc1)c1ccc(Cl)c([N+](=O)[O-])c1	16.3	40.5	–	–	–	–	13.8	28.8	4.53	17.1	16.2	32.8	4.38	18.7	4.7	17.7	3.81	14.8	–	–
Nc1ncnc2c1c(-c1cccc(OCc3ccccc3)c1)cn2C1CC(CN2CCCC2)C1 (stereo unspecified)	0.939	7.17	–	–	2	6.13	1.99	5.5	1.29	3.08	2.91	16	0.705	6.82	4.74	18	3.09	14.5	1.84	3.78
CN(C)c1ccc(/C=C/C(=O)c2ccccc2)cc1Br	–	> 100	–	> 100	–	37.5	–	> 100	–	–	–	40	–	> 100	–	57.1	–	45.2	–	32.3
O=c1oc2c3ccc4ccccc4c3n(CCN3CCOCC3)c2c2ccccc12	–	> 100	–	> 100	–	> 100	–	> 100	–	–	–	–	–	–	–	> 100	–	–	–	> 100
COc1ccc(-c2cn(-c3ccc(Cl)cc3)c(=S)[nH]2)cc1OC	66.4	> 100	13.2	> 100	56.2	> 100	21.5	> 100	> 100	> 100	> 100	> 100	4.58	> 100	46.7	> 100	7.52	> 100	–	–
O=C(CCCCC(=O)N/N=C\c1ccccc1Cl)N/N=C\c1ccccc1Cl	1.77	> 100	1.73	> 100	–	–	3.22	24.6	–	–	13.7	> 100	> 100	> 100	0.515	30.6	7.44	> 100	3.98	> 100
COCC1C(=O)c2cc3c(cc2C12C=CC1(C=C2)OCCO1)OCO3 (stereo unspecified)	–	28.9	–	30.4	–	–	–	36.2	–	–	–	26.9	–	–	–	13.1	–	22.9	–	24.6
O=c1c2cc(Br)ccc2[nH]c(=S)n1-c1ccc(Br)cc1	–	> 100	–	> 100	–	> 100	–	> 100	–	–	–	> 100	–	–	–	> 100	–	> 100	–	–
COc1cc(C2c3cc4c(cc3[C@H](NC(=O)c3cccs3)C3COC(=O)[C@H]23)OCO4)cc(OC)c1OC (stereo partly specified)	–	37.1	–	> 100	–	13.2	–	–	–	–	–	–	–	> 95.1	–	94.4	–	19.5	–	> 100
O=C(CC1(O)C(=O)Nc2c(Cl)cccc21)c1ccccc1 (stereo unspecified)	–	> 100	–	> 100	–	> 100	–	> 100	–	–	–	> 100	–	> 100	–	> 100	–	> 100	–	–
CN(C)c1ccc(/C=C(\C#N)c2cc3ccccc3n2C)cc1	0.226	> 100	0.636	> 100	0.293	> 43.8	0.296	> 100	–	–	0.56	> 100	0.487	> 100	0.405	> 100	0.482	> 100	0.103	> 100
